Read-outs that look alike come from different tables or passages of the source. Blank lines part the entries; values can stand above or below the compound they belong to. Non-standard residues stand in square brackets, D forms with d. Residues, ends and D or L forms follow the SMILES beside them. *: point of attachment. DOTA = O=C(O)CN1CCN(CC(=O)O)CCN(CC(=O)*)CCN(CC(=O)O)CC1; 1Nal = N[C@@H](Cc1cccc2ccccc12)C(=O)O; NMeNle = CCCC[C@H](NC)C(=O)O
Experiment: biodistribution in A431-CCK2R/A431-mock xenografted BALB/c nude mice
Type: in vivo
Details: female, athymic BALB/c nude, mouse, iv, total radioactivity; for tissue to tissue ratio at 4 h / tissue uptake at 4 h: 4 h p.i.; for tissue uptake at 12 h / tissue to tissue ratio at 12 h: 12 h p.i.
Method: Biodistribution studies evaluating the tumor uptake of the radiolabeled peptides were performed in 7- to 9-week-old female athymic BALB/c nude mice (Charles River, Sulzfeld, Germany). For the induction of tumor xenografts, 150 μL of DMEM containing 2 × 10^6 A431-CCK2R and A431-mock cells were injected subcutaneously in the right and left flank of each mouse, respectively. And 10–14 days after injection, tumors reached a medium weight of ∼0.25 g. The mice were divided into groups of four and injected intravenously via a lateral tail vein with 0.2 MBq of ^111In-labeled compound (0.02 nmol) and 0.7 and 1.5 MBq of the ^177Lu-labeled compound (0.02 and 0.15 nmol). At 4 and 12 h p.i., the mice were sacrificed and the tumors and other tissues (blood, lung, heart, muscle, spleen, intestine, liver, kidneys, stomach, and pancreas) were removed, weighed, and their radioactivity measured in the γ counter together with the rest of the body. Initial biodistribution studies were performed with the three ^177Lu-labeled CCK2R-targeting ligands at an injected peptide amount of 20 pmol for the time point of 4 h p.i. From these studies, two peptide analogues were selected to further characterize the biodistribution profile also at a later time point of 12 h p.i. and at a higher injected peptide amount of 150 pmol. Additional animal studies were performed for the ^111In-labeled conjugates. Percentage of injected activity per gram tissue (%IA/g), tumor-to-organ activity ratios, as well as whole body activity were calculated for each sample and statistical analysis using independent two-population t-test (significance level p < 0.05) was performed using Origin software. For the comparison of more than two groups, data were analyzed using one-way analysis of variance (ANOVA) Holm–Bonferroni-adjusted post hoc analysis (significance level p < 0.05) using Microsoft Excel 2010 software (Microsoft Excel 2010, Microsoft Corporation, WA).

[1] = A431-CCK2R xenograft tumor / blood, 20 pmol, 20 pmol, read-out: tumor-to-blood ratio
[2] = A431-CCK2R xenograft tumor / kidney, 20 pmol, 20 pmol, read-out: tumor-to-kidney ratio
[3] = A431-CCK2R xenograft tumor / liver, 20 pmol, 20 pmol, read-out: tumor-to-liver ratio
[4] = A431-CCK2R xenograft tumor / stomach, 20 pmol, 20 pmol, read-out: tumor-to-stomach ratio
[5] = A431-CCK2R xenograft tumor, 20 pmol, 20 pmol, read-out: tumor uptake in A431-CCK2R xenografts
[6] = A431-CCK2R xenograft tumor, 150 pmol, 150 pmol, read-out: tumor uptake in A431-CCK2R xenografts
[7] = A431-mock xenograft tumor, 20 pmol, 20 pmol, read-out: uptake in A431-mock xenografts
[8] = blood, 20 pmol, 20 pmol, read-out: uptake in blood
[9] = heart, 20 pmol, 20 pmol, read-out: uptake in heart
[10] = intestine, 20 pmol, 20 pmol, read-out: uptake in intestine
[11] = intestine, 150 pmol, 150 pmol, read-out: uptake in intestine
[12] = kidney, 20 pmol, 20 pmol, read-out: uptake in kidney
[13] = kidney, 150 pmol, 150 pmol, read-out: uptake in kidney
[14] = liver, 20 pmol, 20 pmol, read-out: uptake in liver
[15] = liver, 150 pmol, 150 pmol, read-out: uptake in liver
[16] = lung, 20 pmol, 20 pmol, read-out: uptake in lung
[17] = lung, 150 pmol, 150 pmol, read-out: uptake in lung
[18] = muscle, 20 pmol, 20 pmol, read-out: uptake in muscle
[19] = muscle, 150 pmol, 150 pmol, read-out: uptake in muscle
[20] = pancreas, 20 pmol, 20 pmol, read-out: uptake in pancreas
[21] = pancreas, 150 pmol, 150 pmol, read-out: uptake in pancreas
[22] = spleen, 20 pmol, 20 pmol, read-out: uptake in spleen
[23] = stomach, 20 pmol, 20 pmol, read-out: uptake in stomach
[24] = stomach, 150 pmol, 150 pmol, read-out: uptake in stomach
[25] = tumor/blood, 20 pmol, 20 pmol, read-out: tumor-to-blood ratio
[26] = tumor/blood, 150 pmol, 150 pmol, read-out: tumor-to-blood ratio
[27] = tumor/kidney, 20 pmol, 20 pmol, read-out: tumor-to-kidney ratio
[28] = tumor/kidney, 150 pmol, 150 pmol, read-out: tumor-to-kidney ratio
[29] = tumor/liver, 20 pmol, 20 pmol, read-out: tumor-to-liver ratio
[30] = tumor/liver, 150 pmol, 150 pmol, read-out: tumor-to-liver ratio
[31] = tumor/stomach, 20 pmol, 20 pmol, read-out: tumor-to-stomach ratio
[32] = tumor/stomach, 150 pmol, 150 pmol, read-out: tumor-to-stomach ratio

tissue to tissue ratio at 4 h [1]: 540 ± 103
tissue to tissue ratio at 4 h [2]: 10
tissue to tissue ratio at 4 h [3]: 83.3 ± 23
tissue to tissue ratio at 4 h [4]: 5
tissue uptake at 4 h [5]: 34.7 ± 9.4 %ID/g
tissue uptake at 12 h [5]: 23.4 ± 8.64 %ID/g
tissue uptake at 4 h [6]: 16.7 ± 1.48 %ID/g
tissue uptake at 4 h [7]: 0.32 ± 0.14 %ID/g
tissue uptake at 12 h [7]: 0.11 ± 0.02 %ID/g
tissue uptake at 4 h [8]: 0.07 ± 0.02 %ID/g
tissue uptake at 12 h [8]: 0.01 %ID/g
tissue uptake at 4 h [9]: 0.09 ± 0.01 %ID/g
tissue uptake at 12 h [9]: 0.05 ± 0.01 %ID/g
tissue uptake at 4 h [10]: 1.14 ± 0.51 %ID/g
tissue uptake at 12 h [10]: 0.24 ± 0.02 %ID/g
tissue uptake at 4 h [11]: 0.61 ± 0.13 %ID/g
tissue uptake at 4 h [12]: 3.97 ± 1.31 %ID/g
tissue uptake at 12 h [12]: 3.12 ± 1.05 %ID/g
tissue uptake at 4 h [13]: 4.04 ± 0.82 %ID/g
tissue uptake at 4 h [14]: 0.42 ± 0.06 %ID/g
tissue uptake at 12 h [14]: 0.32 ± 0.09 %ID/g
tissue uptake at 4 h [15]: 0.49 ± 0.12 %ID/g
tissue uptake at 4 h [16]: 0.14 ± 0.05 %ID/g
tissue uptake at 12 h [16]: 0.11 ± 0.07 %ID/g
tissue uptake at 4 h [17]: 0.15 ± 0.07 %ID/g
tissue uptake at 4 h [18]: 0.06 ± 0.05 %ID/g
tissue uptake at 12 h [18]: 0.02 ± 0.01 %ID/g
tissue uptake at 4 h [19]: 0.05 ± 0.03 %ID/g
tissue uptake at 4 h [20]: 2.09 ± 0.84 %ID/g
tissue uptake at 12 h [20]: 0.76 ± 0.13 %ID/g
tissue uptake at 4 h [21]: 0.35 ± 0.06 %ID/g
tissue uptake at 4 h [22]: 0.18 ± 0.04 %ID/g
tissue uptake at 12 h [22]: 0.13 ± 0.03 %ID/g
tissue uptake at 4 h [23]: 7.37 ± 2.26 %ID/g
tissue uptake at 12 h [23]: 4.18 ± 0.72 %ID/g
tissue uptake at 4 h [24]: 1.26 ± 0.5 %ID/g
tissue to tissue ratio at 12 h [25]: 2440 ± 1780
tissue to tissue ratio at 4 h [26]: 294 ± 137
tissue to tissue ratio at 12 h [27]: 8.14 ± 4.06
tissue to tissue ratio at 4 h [28]: 4.25 ± 0.88
tissue to tissue ratio at 12 h [29]: 76.8 ± 34.4
tissue to tissue ratio at 4 h [30]: 35.9 ± 9.9
tissue to tissue ratio at 12 h [31]: 5.54 ± 1.44
tissue to tissue ratio at 4 h [32]: 14.9 ± 5.6
Compound: CCCC[C@@H](C(=O)N[C@@H](CC(=O)O)C(=O)N[C@@H](Cc1cccc2ccccc12)C(N)=O)N(C)C(=O)[C@H](Cc1c[nH]c2ccccc12)NC(=O)CNC(=O)[C@H](Cc1ccc(O)cc1)NC(=O)[C@@H]1CCCN1C(=O)[C@@H](CCC(=O)O)NC(=O)CN1CCN(CC(=O)O)CCN(CC(=O)O)CCN(CC(=O)O)CC1 [[^177Lu]Lu-1, metal not drawn] ({DOTA}-[dE]PYGW[NMeNle]D[1Nal]-NH2)

tissue to tissue ratio at 4 h [1]: 429 ± 134
tissue to tissue ratio at 4 h [2]: 6.51 ± 2.29
tissue to tissue ratio at 4 h [3]: 80.6 ± 26.5
tissue to tissue ratio at 4 h [4]: 7.31 ± 1.84
tissue uptake at 4 h [5]: 33.2 ± 6.34 %ID/g
tissue uptake at 12 h [5]: 25 ± 4.92 %ID/g
tissue uptake at 4 h [6]: 17.2 ± 5.98 %ID/g
tissue uptake at 4 h [7]: 0.25 ± 0.06 %ID/g
tissue uptake at 12 h [7]: 0.15 ± 0.03 %ID/g
tissue uptake at 4 h (A431-mock xenograft tumor, 150 pmol, 150 pmol, read-out: uptake in A431-mock xenografts): 0.33 ± 0.05 %ID/g
tissue uptake at 4 h [8]: 0.08 ± 0.01 %ID/g
tissue uptake at 12 h [8]: 0.01 %ID/g
tissue uptake at 4 h (blood, 150 pmol, 150 pmol, read-out: uptake in blood): 0.09 ± 0.01 %ID/g
tissue uptake at 4 h [9]: 0.09 ± 0.01 %ID/g
tissue uptake at 12 h [9]: 0.05 ± 0.01 %ID/g
tissue uptake at 4 h (heart, 150 pmol, 150 pmol, read-out: uptake in heart): 0.15 ± 0.05 %ID/g
tissue uptake at 4 h [10]: 0.56 ± 0.1 %ID/g
tissue uptake at 12 h [10]: 0.19 ± 0.02 %ID/g
tissue uptake at 4 h [11]: 0.55 ± 0.08 %ID/g
tissue uptake at 4 h [12]: 5.53 ± 1.51 %ID/g
tissue uptake at 12 h [12]: 3.37 ± 0.17 %ID/g
tissue uptake at 4 h [13]: 7.88 ± 1.26 %ID/g
tissue uptake at 4 h [14]: 0.43 ± 0.08 %ID/g
tissue uptake at 12 h [14]: 0.27 ± 0.03 %ID/g
tissue uptake at 4 h [15]: 0.79 ± 0.19 %ID/g
tissue uptake at 4 h [16]: 0.17 ± 0.01 %ID/g
tissue uptake at 12 h [16]: 0.08 ± 0.01 %ID/g
tissue uptake at 4 h [17]: 0.25 ± 0.04 %ID/g
tissue uptake at 4 h [18]: 0.06 ± 0.03 %ID/g
tissue uptake at 12 h [18]: 0.02 %ID/g
tissue uptake at 4 h [19]: 0.1 ± 0.09 %ID/g
tissue uptake at 4 h [20]: 1.21 ± 0.49 %ID/g
tissue uptake at 12 h [20]: 0.82 ± 0.06 %ID/g
tissue uptake at 4 h [21]: 0.73 ± 0.55 %ID/g
tissue uptake at 4 h [22]: 0.16 ± 0.01 %ID/g
tissue uptake at 12 h [22]: 0.13 ± 0.01 %ID/g
tissue uptake at 4 h (spleen, 150 pmol, 150 pmol, read-out: uptake in spleen): 0.28 ± 0.08 %ID/g
tissue uptake at 4 h [23]: 4.68 ± 0.93 %ID/g
tissue uptake at 12 h [23]: 4.12 ± 0.82 %ID/g
tissue uptake at 4 h [24]: 1.02 ± 0.45 %ID/g
tissue to tissue ratio at 12 h [25]: 2000 ± 750
tissue to tissue ratio at 4 h [26]: 188 ± 80
tissue to tissue ratio at 12 h [27]: 7.41 ± 1.33
tissue to tissue ratio at 4 h [28]: 2.23 ± 0.87
tissue to tissue ratio at 12 h [29]: 131 ± 37
tissue to tissue ratio at 4 h [30]: 22.8 ± 10
tissue to tissue ratio at 12 h [31]: 6.15 ± 1.12
tissue to tissue ratio at 4 h [32]: 12.7 ± 4.9
Compound: CCCC[C@@H](C(=O)N[C@@H](CC(=O)O)C(=O)N[C@@H](Cc1cccc2ccccc12)C(N)=O)N(C)C(=O)[C@H](Cc1c[nH]c2ccccc12)NC(=O)CNC(=O)[C@@H]1CCCN1C(=O)[C@H](Cc1ccc(O)cc1)NC(=O)[C@@H](CCC(=O)O)NC(=O)CN1CCN(CC(=O)O)CCN(CC(=O)O)CCN(CC(=O)O)CC1 [[^177Lu]Lu-2, metal not drawn] ({DOTA}-[dE]YPGW[NMeNle]D[1Nal]-NH2)

From publication PMC7734625, “Stabilization Strategies for Linear Minigastrin Analogues: Further Improvements via the Inclusion of Proline into the Peptide Sequence” (Journal of Medicinal Chemistry, 2020)
